In paper PMC3111092 (Journal of natural products, 2011):

Columns and labels:
NF-κB p65 = experiment: ELISA based NF-κB p65 inhibitory assay in HeLa cells; assay type: cell-based; details: for NF-κB inhibition activity (in words): HeLa cells, p65 ELISA; for IC50: Homo sapiens, HeLa, read-out: NF-κB inhibitory activity IC50
Bacillus subtilis = experiment: Antimicrobial agar plate diffusion assay; assay type: cell-based
Staphylococcus aureus = experiment: Antimicrobial agar plate diffusion assay; assay type: cell-based
Escherichia coli = experiment: Antimicrobial agar plate diffusion assay; assay type: cell-based
TAK1 = details: reported previously; cited from earlier work

Structure (SMILES) | NF-κB inhibition activity (in words) (NF-κB p65) | IC50 (NF-κB p65) [µM] | MIC (Staphylococcus aureus) [µg/mL] | also measured
C[C@H]1C/C=C\C(=O)[C@@H](O)[C@@H](O)C/C=C/c2cc(O)cc(O)c2C(=O)O1 [compound 1, 15-O-desmethyl-5Z-7-oxozeaenol] | sub-micromolar | – | – | –
COc1cc(O)c2c(c1)/C=C/C[C@H](O)[C@H](O)[C@@H](O)/C=C/C[C@H](C)OC2=O [compound 2, zeaenol] | – | > 50 | > 500 | MIC (Bacillus subtilis): > 500 µg/mL
COc1cc(O)c2c(c1)/C=C/C[C@H](O)[C@H](O)[C@H](O)/C=C/C[C@H](C)OC2=O [compound 3, 7-epi-zeaenol] | – | > 50 | – | MIC (Escherichia coli): > 500 µg/mL
COc1cc(O)c2c(c1)/C=C/C[C@H](O)[C@H](O)C(=O)/C=C\C[C@H](C)OC2=O [compound 5, 5Z-7-oxozeaenol] | sub-micromolar | – | > 500 | TAK1 inhibition (TAK1): potent inhibitor
CC1(C)S[C@@H]2[C@H](NC(=O)Cc3ccccc3)C(=O)N2[C@H]1C(=O)O [penicillin G, reference compound] | – | – | – | lowest concentration at which biological activity could be detected (Escherichia coli; positive controls): 100 μg/mL
